# Test results reported in patent US11814428B2, “Anti-PTCRA antibody-drug conjugates and uses thereof” (REGENERON PHARMACEUTICALS, INC., priority 2019, dated 2023).
# Test system: SupT1 cells
# Assay: Proliferation of T-ALL cells treated with SRC-family kinase inhibitor
# Type: cell-based, human
# Settings: PTCRA-dependent T-ALL cell lines
structure (smiles),measurement,value
Cc1ccc(-c2nn(C(C)(C)C)c3ncnc(N)c23)cc1 [PP1],anti-proliferative response,dose-dependent anti-proliferative response
